Source: US20230219906A1, “MACROCYCLIC-2-AMINO-3-FLUORO-BUT-3-ENAMIDES AS INHIBITORS OF MCL-1” (Janssen Pharmaceutica NV, priority 2020, published 2023)
Where two headings read alike, the source gives them in different places.

Assays:
[1] = molecular target: Myeloid Cell Leukemia 1(Mcl-1) (Homo sapiens, UniProt Q07820); assay: Terbium labeled Mcl-1 HTRF binding assay with Cy5-labeled BIM BH3 peptide; details: displacement of Cy5 Bim BH3 peptide; Ki=IC50/(1+[L]/Kd), [L]=8 nM, Kd=10 nM; 60 minutes at room temperature; read-out: Tb-MCL1 Ki
Myeloid Cell Leukemia 1(Mcl-1), sequence (Q07820 whole entry): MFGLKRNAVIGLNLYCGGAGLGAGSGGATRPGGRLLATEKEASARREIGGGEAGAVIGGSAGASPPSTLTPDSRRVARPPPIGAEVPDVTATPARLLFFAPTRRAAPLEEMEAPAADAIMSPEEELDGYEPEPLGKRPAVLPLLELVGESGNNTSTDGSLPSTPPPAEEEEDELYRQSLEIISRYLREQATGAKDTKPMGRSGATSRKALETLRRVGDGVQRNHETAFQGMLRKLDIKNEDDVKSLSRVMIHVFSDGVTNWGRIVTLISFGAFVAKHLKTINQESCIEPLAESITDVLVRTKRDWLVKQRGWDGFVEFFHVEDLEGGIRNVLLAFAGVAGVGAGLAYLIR
Method in brief: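 TR-FRET displacement of Cy5-BIM BH3 peptide (8 nM; Kd 10 nM) from 25 pM Tb-labelled Mcl-1 in 10 mM Tris-HCl pH 7.5, 150 mM NaCl, 2 mM DTT, 0.0025% Tween-20, 0.1 mg/mL BSA, 1% DMSO. 60 min at room temperature; 665/620 nm ratio normalized to controls, IC50 from 11-point curve.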

[2] = system: MOLP-8 human multiple myeloma cell line; assay: Caspase-Glo 3/7 apoptosis induction assay in MOLP-8 cells; format: cell-based; details: caspase-3/7 activity, 2 hours at 37° C., averaged over all runs on all batches, read-out: MOLP8 AC50
Method in brief: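 MOLP-8 cells were treated for 2 h at 37° C with 10-dose, 1/3 serial dilutions ([…], 0.5% DMSO final, duplicates). Caspase-3/7 activity was read by Caspase-Glo luminescence 30 min after reagent addition. % effect was normalised between low (1% DMSO) and high (positive control) controls.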

Row | Structure (SMILES) | Ki [1] [nM] | AC50 ([2]; Homo sapiens, MOLP-8, 2 h) [nM] | AC50 [2] [nM]
1 | C[C@@H]1[C@@H](C)C/C=C(\F)[C@H](C(=O)N(C)CCN2CCOCC2)N2CCC[C@H]2CN2C[C@@]3(CCCc4cc(Cl)ccc43)COc3ccc(cc32)C(=O)NS1(=O)=O [Compound 1] | 0.027 | 80.1 | 
2 | C[C@@H]1[C@@H](C)C/C=C(\F)[C@H](C(=O)N(C)C2CCCOC2)N2CCC[C@H]2CN2C[C@@]3(CCCc4cc(Cl)ccc43)COc3ccc(cc32)C(=O)NS1(=O)=O (single isomer, unassigned) [Compound 63] | 0.041 |  | 57.4
3 | C[C@@H]1[C@@H](C)C/C=C(\F)[C@H](C(=O)N(C)CCCN2CCOCC2)N2CCC[C@H]2CN2C[C@@]3(CCCc4cc(Cl)ccc43)COc3ccc(cc32)C(=O)NS1(=O)=O [Compound 5] | 0.026 | 111 | 
4 | C[C@@H]1[C@@H](C)C/C=C(\F)[C@H](C(=O)N2CC(C(F)(F)F)C2)N2CCC[C@H]2CN2C[C@@]3(CCCc4cc(Cl)ccc43)COc3ccc(cc32)C(=O)NS1(=O)=O [Compound 36] | 0.325 | 399 | 
5 | CO[C@H]1CN(C(=O)[C@H]2/C(F)=C/C[C@H](C)[C@@H](C)S(=O)(=O)NC(=O)c3ccc4c(c3)N(C[C@@H]3CCCN32)C[C@@]2(CCCc3cc(Cl)ccc32)CO4)C[C@H]1OC [Compound 60] | 0.022 | 92.3 | 
6 | C[C@@H]1[C@@H](C)C/C=C(\F)[C@H](C(=O)N(C)CCC2CCOCC2)N2CCC[C@H]2CN2C[C@@]3(CCCc4cc(Cl)ccc43)COc3ccc(cc32)C(=O)NS1(=O)=O (single isomer, unassigned) [Compound 2] | 0.089 | 89.2 | 
7 | C[C@@H]1[C@@H](C)C/C=C(\F)[C@H](C(=O)N(C)CC2CCOC2)N2CCC[C@H]2CN2C[C@@]3(CCCc4cc(Cl)ccc43)COc3ccc(cc32)C(=O)NS1(=O)=O (single isomer, unassigned) [Compound 57] | 0.051 |  | 84.4
8 | C[C@@H]1[C@@H](C)C/C=C(\F)[C@H](C(=O)N2C[C@H]3C[C@@H]2CO3)N2CCC[C@H]2CN2C[C@@]3(CCCc4cc(Cl)ccc43)COc3ccc(cc32)C(=O)NS1(=O)=O [Compound 9] | 0.13 | 180 | 
9 | C[C@@H]1[C@@H](C)C/C=C(\F)[C@H](C(=O)N2CCCC3(CC3)C2)N2CCC[C@H]2CN2C[C@@]3(CCCc4cc(Cl)ccc43)COc3ccc(cc32)C(=O)NS1(=O)=O (single isomer, unassigned) [Compound 16] | 0.446 | 446 | 
10 | C[C@@H]1[C@@H](C)C/C=C(\F)[C@H](C(=O)N(C)CC2CCOC2)N2CCC[C@H]2CN2C[C@@]3(CCCc4cc(Cl)ccc43)COc3ccc(cc32)C(=O)NS1(=O)=O (single isomer, unassigned) [Compound 56] | 0.038 | 89.4 | 
11 | C[C@@H]1[C@@H](C)C/C=C(\F)[C@H](C(=O)N(C)CCOc2cncnc2)N2CCC[C@H]2CN2C[C@@]3(CCCc4cc(Cl)ccc43)COc3ccc(cc32)C(=O)NS1(=O)=O [Compound 41] | 0.034 | 99.1 | 
12 | C[C@@H]1[C@@H](C)C/C=C(\F)[C@H](C(=O)N(C)Cc2ccn(C)n2)N2CCC[C@H]2CN2C[C@@]3(CCCc4cc(Cl)ccc43)COc3ccc(cc32)C(=O)NS1(=O)=O [Compound 40] | 0.623 | 138 | 
13 | COCCN(CCOC)C(=O)[C@H]1/C(F)=C/C[C@H](C)[C@@H](C)S(=O)(=O)NC(=O)c2ccc3c(c2F)N(C[C@@H]2CCCN21)C[C@@]1(CCCc2cc(Cl)ccc21)CO3 [Compound 17] | 0.032 | 234 | 
14 | CC1CN(CCN(C)C(=O)[C@H]2/C(F)=C/C[C@H](C)[C@@H](C)S(=O)(=O)NC(=O)c3ccc4c(c3)N(C[C@@H]3CCCN32)C[C@@]2(CCCc3cc(Cl)ccc32)CO4)CC(C)O1 (mixture of isomers) [Compound 45] | 0.113 |  | 113
15 | COCCN(CCOC)C(=O)[C@H]1/C(F)=C/C[C@H](C)[C@@H](C)S(=O)(=O)NC(=O)c2cc3c(cc2F)OC[C@]2(CCCc4cc(Cl)ccc42)CN3C[C@@H]2CCCN21 [Compound 18] | 0.05 | 213 | 
16 | C[C@@H]1[C@@H](C)C/C=C(\F)[C@H](C(=O)N(C)CCN2CCOCC2C(F)(F)F)N2CCC[C@H]2CN2C[C@@]3(CCCc4cc(Cl)ccc43)COc3ccc(cc32)C(=O)NS1(=O)=O (mixture of isomers) [Compound 50] | 0.146 | 175 | 
17 | C[C@@H]1[C@@H](C)C/C=C(\F)[C@H](C(=O)N2CC(C)(N3CCOCC3)C2)N2CCC[C@H]2CN2C[C@@]3(CCCc4cc(Cl)ccc43)COc3ccc(cc32)C(=O)NS1(=O)=O [Compound 84] | 0.04 | 317 | 
18 | C[C@@H]1[C@@H](C)C/C=C(\F)[C@H](C(=O)N(C)CC2CCCCO2)N2CCC[C@H]2CN2C[C@@]3(CCCc4cc(Cl)ccc43)COc3ccc(cc32)C(=O)NS1(=O)=O (single isomer, unassigned) [Compound 72] | 0.061 |  | 75.2
19 | C[C@@H]1[C@@H](C)C/C=C(\F)[C@H](C(=O)N(C)CCOc2cncc(F)c2)N2CCC[C@H]2CN2C[C@@]3(CCCc4cc(Cl)ccc43)COc3ccc(cc32)C(=O)NS1(=O)=O [Compound 48] | 0.155 | 112 | 
20 | C[C@@H]1[C@@H](C)C/C=C(\F)C(CO)(C(=O)N(C)CCN2CCOCC2)N2CCC[C@H]2CN2C[C@@]3(CCCc4cc(Cl)ccc43)COc3ccc(cc32)C(=O)NS1(=O)=O (some centres unmarked) [Compound 86] | 0.032 | 1600 | 
21 | C[C@@H]1[C@@H](C)C/C=C(\F)[C@H](C(=O)N(C)CCN2CCCOCC2)N2CCC[C@H]2CN2C[C@@]3(CCCc4cc(Cl)ccc43)COc3ccc(cc32)C(=O)NS1(=O)=O [Compound 75] | 0.022 | 83 | 
22 | COCCN(C)C(=O)[C@H]1/C(F)=C/C[C@H](C)[C@@H](C)S(=O)(=O)NC(=O)c2ccc3c(c2)N(C[C@@H]2CCCN21)C[C@@]1(CCCc2cc(Cl)ccc21)CO3 [Compound 21] | 0.075 | 78 | 
